Reference: US20260325481A1, “THERAPY SELECTION AND TREATMENT OF NEURODEGENERATIVE DISORDERS” (Anavex Life Sciences Corp., priority 2022, published 2026)

Legend:
[1] = test system: patients with Parkinson's Disease with Dementia (PDD); test: ANAVEX 2-73-PDD-001 Phase 2 study (randomized, double blind, placebo-controlled) in Parkinson's Disease with Dementia; assay type: in vivo, human
Description: In order to assess the safety, tolerability and efficacy of ANAVEX® 2-73 (blarcamesine) oral capsules in treating cognitive impairment in patients with Parkinson's Disease with Dementia (PDD), a phase 2 study, coded “ANAVEX® 2-73-PDD-001 study” (FIG. 1), was conducted. The study was multi-center, randomized, double blind, placebo-controlled, parallel group with 3-arm. The study included a 2-week Screening/Baseline Observation Period and a 14-week Treatment Period (including a 2 week Titration Period), and a 2-week Safety Follow-Up Period. A total of 132 patients were enrolled in the study and were randomly assigned to three testing arms (FIG. 1). In ANAVEX2-73 High Dose arm, 44 patients were given oral capsules of ANAVEX2-73 once daily in an escalating dose of 10 mg, 20 mg, 30 mg and 50 mg. In ANAVEX2-73 Mid Dose arm, 44 patients were given oral capsules of ANAVEX2-73 once daily in an escalating dose of 10 mg, 20 mg, and 30 mg. In placebo group, 44 patients were given placebo capsules. Outcome measures included Cognitive Drug Research (CDR) Computerized Assessment System on Continuity of Attention; Change from Baseline to End of Treatment in Continuity of Attention as measured by Cognitive Drug Research (CDR) Computerized Assessment System Continuity of Attention; Number of participants with treatment-related adverse events as assessed by CTCAE v4.0 [Time Frame: 14 weeks]; Assessment of the safety and tolerability of ANAVEX2-73 compared to placebo; MDS-UPDRS Part III Total Score (Motor Scores); Change from baseline to End of Treatment as measured by MDS-UPDRS Part III Total Score (Motor Scores); SDS-CL-25 [Time Frame: 14 weeks]; Incidence of sleep disorders symptoms (SDS-CL-25); and DNA/RNA Sequencing. Since MDS-UPDRS is indicative of the motor activity for Parkinson Disease (PD), the trial can also identify the effects of ANAVEX® 2-73 on PD patients.
The trial enrolled 132 adults, ages 50-85, with PDD, and was successfully concluded in September 2020. Participants, recruited at multiple sites in Spain and Australia, were randomly assigned to one of two doses groups (with an escalating ANAVEX 2-73 dose up to 30 or 50 mg oral capsules) or to a placebo, once daily for 14 weeks (see FIG. 1 for details). The trial's main goals were to assess the therapy's safety and changes in patients' cognitive function, measured using the cognitive drug research computerized assessment system—a test that looks at multiple cognitive skills, such as choice reaction time (choosing between similar objects), vigilance, and episodic memory (remembering new personal experiences or shared information). Secondary goals included changes in patients' motor abilities—assessed with the Movement Disorders Society Unified Parkinson's Disease Rating Scale (MDS-UPDRS) Part III—and sleep quality. […] This sleep disorder is associated with greater cognitive impairment and a higher risk of dementia. […] After 14 weeks, the MDS-UPDRS total score dropped by 10.98 points (indicating an easing in disease severity) in the high-dose group and rose by 3.53 points in the placebo group. This represented an adjusted mean improvement of 14.51 points—surpassing the established, clinically meaningful 7.1 point-cut-off—and a relative improvement of 18.9% over 14 weeks. These findings highlight ANAVEX 2-73's ability to not only slow, but also reverse, symptoms that progress in Parkinson's disease, potentially fulfilling an urgent unmet medical need, Anavex stated in its release. […] After completing the PDD-001 trial, patients had the option of being treated with ANAVEX 2-73 for nearly one year in its extension study, called ANAVEX 2-73-PDD-EP-001 (NCT04575259).
Randomized, placebo-controlled clinical trial in 132 patients with Parkinson's disease with dementia (PDD) included prespecified biomarkers of response as well as Whole Exome Sequencing DNA data and full RNA exome expression data collection. […]

SIGMAR1 = SIGMAR1 levels in PDD-001 patients; assay type: in vivo, human; conditions: PDD-001 study
Description: The trial enrolled 132 adults, ages 50-85, with PDD, and was successfully concluded in September 2020. Participants, recruited at multiple sites in Spain and Australia, were randomly assigned to one of two doses groups (with an escalating ANAVEX 2-73 dose up to 30 or 50 mg oral capsules) or to a placebo, once daily for 14 weeks (see FIG. 1 for details). The trial's main goals were to assess the therapy's safety and changes in patients' cognitive function, measured using the cognitive drug research computerized assessment system—a test that looks at multiple cognitive skills, such as choice reaction time (choosing between similar objects), vigilance, and episodic memory (remembering new personal experiences or shared information). Secondary goals included changes in patients' motor abilities—assessed with the Movement Disorders Society Unified Parkinson's Disease Rating Scale (MDS-UPDRS) Part III—and sleep quality. […] This sleep disorder is associated with greater cognitive impairment and a higher risk of dementia. […] After 14 weeks, the MDS-UPDRS total score dropped by 10.98 points (indicating an easing in disease severity) in the high-dose group and rose by 3.53 points in the placebo group. This represented an adjusted mean improvement of 14.51 points—surpassing the established, clinically meaningful 7.1 point-cut-off—and a relative improvement of 18.9% over 14 weeks. […]

CN(C)CC1CCOC1(c1ccccc1)c1ccccc1.Cl (stereo not shown) [ANAVEX2-73, tetrahydro-N,N-dimethyl-2,2-diphenyl-3-furanmethanamine hydrochloride]
Dementia assessment, Quality of Episodic Memory ([1]; 14-week trial, oral): dose-dependent, statistically significant improvement
REM sleep behavior disorder ([1]; 14 weeks, previously reported results, confirmed): lessened REM sleep behavior disorder
Cognitive skills ([1]; CDR computerized assessment system, 14 weeks, previously reported results, confirmed): significantly improved several cognitive skills
MDS-UPDRS Part II response ([1]; MS4A4A Wild Type rs6591561 cohort (excluding rs6591561 homozygous mutation carriers)): strongest response
Response depending on patients' MS4A4A (rs6591561) carrier status ([1]; PDD-001 study): Different ANAVEX® 2-73 response
Motor and non-motor Parkinson's symptoms (MDS-UPDRS total score) ([1]; high dose (50 mg) once daily oral, 14 weeks): statistically significant and clinically meaningful reductions
Parkinson's assessment, MDS-UPDRS Total score ([1]; high oral dose once daily, 14-week trial): significant improvement
Safety ([1]; oral capsules once daily up to 30 or 50 mg, 14 weeks, previously reported results): generally safe
SIGMAR1 levels (SIGMAR1): significant increase
Association of rise in SIGMAR1 levels with clinical response (SIGMAR1; attention measures, MDS-UPDRS total and Part III): significantly associated with improvements in attention measures, and reductions in both MDS-UPDRS total and MDS-UPDRS Part III (motor scores)
